In US20210121438A1, “METHODS FOR TREATING OR PREVENTING CONFORMATION DISEASES AND METHODS FOR DRUG SCREENING” (GARAGE BRAIN SCIENCE CO., LTD, priority 2018, published 2021):

Key:
Format in all cases: cell-based
[1] = test system: GFP-TDP-43-IIPLD inclusion-expressing 293T cells; assay: TDP-43-IIPLD misfolded aggregates in transfected 293T cells (microscopy)
Method: Cell Culture and Drug Treatment: 293T cells were used throughout the experimental studies. 293T cells were grown in Dulbecco's modified Eagle's medium (DMEM)/F12, which was supplemented with 10% fetal bovine serum, 1% penicillin/streptomycin and 1% L-glutamate. Primary cultures of rat hippocampal neurons were prepared from embryonic day 17 rat embryos as previously described by (Wang et al, TDP-43, the signature protein of FTLD-U, is a neuronal activity-responsive factor. J. Neurochem. 105, 79T-806 (2008)). All procedures for handling the rat were carried out in accordance with the guidelines approved by the Institutional Animal Care and Utilization Committee, Academia Sinica. Hippocampal cells were plated on poly-1-lysine-coated coverslides at low density (10,000 cells per cm2) and cultured in the neurobasal medium/B27 (Invitrogen). The 293T cells were transfected using the calcium phosphate protocol according to the manufacturer's instructions and as previously described by Wang et al. (Wang et al., ProcNatlAcadSci USA. 99, 13583-13588 (2002). All of the plasmid constructs were described in Wang et al., Nature Communication, 2012). 293T cells (1×10^5) were seeded in each well of a six-well plate and incubated overnight in a 37° C. incubator with 5% CO2. To determine the effects of off-pathway stabilizers on the reduction of pathological-like aggregates, the cells were treated with baicalein and EGCG for 12, 24, or 48 h with the indicated concentrations (25 or 50 μM).
GFP-TDP-43 pathological-like (GFP-TDP-43-IIPLD) inclusion-expressing 293T cells were treated with or without 50 μM baicalein for 12 h following microscopic analysis and Western blotting validation. […] (FIG. 2c).

[2] = molecular target: T1, TDP-43 polymers (Homo sapiens, UniProt Q13148); assay: Western blotting of TDP-43 polymers in nuclear, cytosolic and urea fractions
T1 construct: endogenous in cells; host or cells: 293T
T1 sequence (Q13148 whole entry): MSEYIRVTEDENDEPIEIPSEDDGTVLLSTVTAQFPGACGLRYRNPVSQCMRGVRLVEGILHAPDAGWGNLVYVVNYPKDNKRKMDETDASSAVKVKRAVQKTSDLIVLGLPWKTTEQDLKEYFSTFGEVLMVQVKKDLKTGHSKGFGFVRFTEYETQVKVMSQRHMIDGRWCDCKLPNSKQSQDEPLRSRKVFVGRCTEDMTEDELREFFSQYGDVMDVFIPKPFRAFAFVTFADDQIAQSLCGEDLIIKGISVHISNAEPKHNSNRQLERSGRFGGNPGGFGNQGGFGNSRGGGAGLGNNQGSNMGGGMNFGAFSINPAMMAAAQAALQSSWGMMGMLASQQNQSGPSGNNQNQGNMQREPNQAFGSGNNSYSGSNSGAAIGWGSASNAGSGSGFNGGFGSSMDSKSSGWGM
Method: Solubility Assay of TDP-43 and p53: Cells with or without transfection of TDP-43-FL or TDP-43-Q303P were lysed with RIPA buffer (50 mM Tris, 150 mM NaCl, 1 mM EDTA, 1% NP-40, pH 7.4), and the lysate was further fractionated by centrifugation at 16,000 g for 5 min at 4° C. The insoluble pellets were then dissolved in 8 M urea/50 mM Tris (pH 8.0). The proteins were identified by Western blotting using a polyclonal TDP-43 antibody or a monoclonal p53 antibody.
TDP-43 proteinopathies in FTLD/ALS with the VCP/97 mutation R155H have been characterized. The VCP/97 mutation R155H alters the functions of VCP/97, redistributes TDP-43 to the cytosol, and leads to form-insoluble aggregates of TDP-43.

[3] = test system: TDP-43 in cells expressing progeria proteins; assay: Localization of TDP-43 in progeria-expressing cells (immunofluorescence)
Method: (§1) Immunohistochemistry: Fluorescence staining was performed as described previously (Wang et al., 2012). Cells were transfected with or without plasmids or siRNAs and grown for 24 to 48 hr. Cells were fixed with 3.7% paraformaldehyde in PBS at RT for 15 min and then permeabilized with 0.1% Triton X-100. The fixed cells were incubated with primary antibodies at RT for 2 hr followed by incubation with Cy2- or Cy3-labeled secondary antibodies (Molecular Probes). Slides were mounted using Vectashield DAPI H-1200 (Vector). Cellular fluorescence images were collected using an LSM710 META laser-scanning confocal microscope (Zeiss).
To further characterize whether TDP-43 proteins are present in the nuclear matrix, consisting of proteins such as lamina A/C, we double-stained TDP-43 (green) with lamina A/C (red) (FIG. 7). The TDP-43 fibrogranular framework was partially connected to lamina A/C (FIG. 7a, the arrow indicates the colocalization area). As defective lamin A can cause progeria and the a premature aging disorder HGPS, overexpression of progeria proteins is considered a cell model of aging and allowed us to explore the mechanistic link between TDP-43 and aging or a lamin A pathology. We thus overexpressed progeria proteins and examined TDP-43 localization, the efficiency of TDP-43PLD-mediated exon 9 skipping and TDP-43 polymers. […]

[4] = test system: progeria-expressing cells; assay: Nuclear shape in progeria-expressing cells (anti-lamin A/C immunostaining); settings: progeria-expressing cells (HGPS model)
[5] = test system: SMNA7 aggregates in 293T cells; assay: SMNA7 aggregate formation in 293T cells
Excerpt: (§2) We investigate whether baicalein can act as a pharmacological chaperone to refold misfolded SMNA7 into a functional prion-like domain, as shown in FIG. 8 (FIG. 10a). […] PFN1 is a known SMN interactor in the cytosol. We further examined whether baicalein attenuated the degradation of the SMNA7 protein. […] We found baicalein increased the length of axons from NSC34 cells expressing SMNA7 by approximately 2-fold (FIG. 10g).

[6] = test system: SMNA7-expressing cells; assay: Cell viability assay of SMNA7-expressing cells; settings: 50 μM baicalein
Excerpt: as §2

[7] = molecular target: T2, SMNA7 protein (Homo sapiens, UniProt Q16637); assay: SMNA7 protein degradation (Western blotting); settings: baicalein
T2 construct: expressed in transfected cells
T2 sequence (Q16637 1-282 isoform Q16637-3): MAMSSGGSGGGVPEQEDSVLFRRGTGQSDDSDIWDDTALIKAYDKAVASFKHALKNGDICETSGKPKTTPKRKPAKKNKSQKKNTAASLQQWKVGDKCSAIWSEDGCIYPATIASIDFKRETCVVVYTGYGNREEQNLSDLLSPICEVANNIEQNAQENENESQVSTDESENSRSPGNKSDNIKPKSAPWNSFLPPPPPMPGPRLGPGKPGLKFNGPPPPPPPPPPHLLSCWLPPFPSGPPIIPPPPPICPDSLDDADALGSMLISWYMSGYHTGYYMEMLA
Excerpt: as §2

[8] = test system: p53 aggregates in 293T cells; assay: p53 aggregates in 293T cells / p53 strains (immunofluorescence with p53 antibody); settings: 293T cells
Method: as §1
We observed a striking degree of heterogeneity among p53 aggregates in the cytosol of 293T cells by immunofluorescence with a p53 antibody, including long fibers (5-10 μm), short fibers (1.6-3.2 μm) and punctate aggregates (0.5-1 μm in diameter) (FIG. 16a, arrows). The length of the p53 fibers and p53 aggregates were analyzed (FIG. 16b). […] To determine whether these heterogeneous p53 amyloid patterns are inherited or are random conversions, we subcultured and isolated single colonies from heterogeneous pools of cells. […] We obtained four phenotypes shown in FIG. 16a, including long and short fibers, puncta, and diffuse nuclear staining, and these phenotypes were stably propagated (FIG. 16e). We termed these p53 phenotypes of the isolated strains as follows: p53 [L] (Long fibers), p53 [S] (Short fibers), p53 [P] (Puncta) and p53-NVA (No Visible Aggregates).
Additionally, we treated 293T cells with an Aβ amyloid disassembling agent, baicalein, following immunofluorescence staining with anti-p53 antibodies.

O=c1cc(-c2ccccc2)oc2cc(O)c(O)c(O)c12 [baicalein]
TDP-43-IIPLD aggregates, statistical analysis of dose dependence [1]: dosage-dependent reduction of TDP-43-IIPLD aggregates
assembly of TDP-43-IIPLD proteinaceous nucleating particles ([1]; 50 μM): inhibited the assembly of TDP-43-IIPLD proteinaceous nucleating particles
TDP-43 polymers in nuclear fraction ([2]; 293T cells, 0, 25 or 50 μM baicalein): compensatory increase in the nuclear fraction
TDP-43 polymers ([2]; baicalein-treated VCP/p97 R155H cells): increased TDP-43 polymers
nuclear localization of TDP-43 [3]: significantly induced the retention of nuclear TDP-43
nuclear shape defects [4]: corrected nuclear shape defects in HGPS
formation of SMNA7 aggregates [5]: decreased the formation of SMNA7 aggregates in 293T cells in a dose-dependent manner
increase of viability of SMNA7 cells [6]: approximately 2 fold
SMNA7 degradation [7]: significantly reduced SMNA7 degradation
p53 misfolded aggregates ([8]; 25 μM baicalein): reduced p53 misfolded aggregates
spontaneous aggregation of p53 ([8]; baicalein): suppressed the spontaneous aggregation of p53
